{"source": "patent EP0348713A1", "about": "“(R,S)-3-(4-phenyl-1-piperazinyl)-1,2-propanediol salts” (DOTT. FORMENTI S.P.A. INDUSTRIA CHIMICA E FARMACEUTICA, priority 1988, dated 1990)", "experiment": "colour stability in pharmaceutical formulations (undesired colors due to degradation products)", "assay_type": "physicochemical", "settings": "particularly suppositories", "text": "Said colors, due to degradation products, are evidenced also when using the hydrochloride, whereas they are completely removed when a salt according to the invention is used.", "note": "Where a name gives a salt, the structure may show the parent alone.", "data": [{"smiles": "OCC(O)CN1CCN(c2ccccc2)CC1", "note": "(stereo not shown) [hydrochloride]", "values": [{"measurement": "undesired colors occuring in the long run", "value": "evidenced"}]}]}
